# According to PubChem BioAssay AID1963870 (Molecular Pharmacology Branch, DTP, NCI, 2024):
# Tested on: 292921-168-R-J2-PDC KRAS tumor spheroid viability
# Assay: Anticancer human tumor 292921-168-R-J2-PDC patient-derived pancreatic carcinoma cell line growth inhibition [KRAS2]
# Conditions: spheroids with HUVEC and MSC; for IC50: curve of first compound; for viability, T/C: stronger effect = lower value
# Procedure, shortened: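 KRAS-mutant tumor cells were grown as spheroids with HUVEC endothelial cells and human MSCs as stroma. Targeted agents were tested alone and with KRAS pathway inhibitors. Doses started at or near clinical Cmax, or 10 microM, descending half-log.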
# [1] = second compound 0.0316 µM, first compound 0.0316 µM
# [2] = second compound 0.0316 µM, first compound 0.1 µM
# [3] = second compound 0.0316 µM, first compound 0.316 µM
# [4] = second compound 0.0316 µM, first compound 1 µM
# [5] = second compound 0.0316 µM, first compound 3.16 µM
# [6] = second compound 0.0316 µM, first compound 10 µM
# [7] = second compound 0.1 µM, first compound 0.0316 µM
# [8] = second compound 0.1 µM, first compound 0.1 µM
# [9] = second compound 0.1 µM, first compound 0.316 µM
# [10] = second compound 0.1 µM, first compound 1 µM
# [11] = second compound 0.1 µM, first compound 3.16 µM
# [12] = second compound 0.1 µM, first compound 10 µM
# [13] = second compound 0.316 µM, first compound 0.0316 µM
# [14] = second compound 0.316 µM, first compound 0.1 µM
# [15] = second compound 0.316 µM, first compound 0.316 µM
# [16] = second compound 0.316 µM, first compound 1 µM
# [17] = second compound 0.316 µM, first compound 3.16 µM
# [18] = second compound 0.316 µM, first compound 10 µM
# [19] = second compound 1 µM, first compound 0.0316 µM
# [20] = second compound 1 µM, first compound 0.1 µM
# [21] = second compound 1 µM, first compound 0.316 µM
# [22] = second compound 1 µM, first compound 1 µM
# [23] = second compound 1 µM, first compound 3.16 µM
# [24] = second compound 1 µM, first compound 10 µM
# [25] = second compound 3.16 µM, first compound 0.0316 µM
# [26] = second compound 3.16 µM, first compound 0.1 µM
# [27] = second compound 3.16 µM, first compound 0.316 µM
# [28] = second compound 3.16 µM, first compound 1 µM
# [29] = second compound 3.16 µM, first compound 3.16 µM
# [30] = second compound 3.16 µM, first compound 10 µM
# 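Note: drug exposure lasted seven days after spheroids formed for three days.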
# 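Throughout, for viability, T/C: percent of DMSO vehicle control viability which is 100%.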
Structure (SMILES),IC50 (second compound 0.0316 µM) [nM],IC50 (second compound 0.1 µM) [nM],IC50 (second compound 0.316 µM) [nM],IC50 (second compound 1 µM) [nM],IC50 (second compound 3.16 µM) [nM],"viability, T/C [1] [%]","viability, T/C [2] [%]","viability, T/C [3] [%]","viability, T/C [4] [%]","viability, T/C [5] [%]","viability, T/C [6] [%]","viability, T/C [7] [%]","viability, T/C [8] [%]","viability, T/C [9] [%]","viability, T/C [10] [%]","viability, T/C [11] [%]","viability, T/C [12] [%]","viability, T/C [13] [%]","viability, T/C [14] [%]","viability, T/C [15] [%]",also measured
COC(=O)c1ccc2c(C(=Nc3ccc(N(C)C(=O)CN4CCN(C)CC4)cc3)c3ccccc3)c(O)[nH]c2c1 + C=CC(=O)N1CCN(c2nc(OCC3CCCN3C)nc3c2CCN(c2cccc4cccc(C)c24)C3)CC1CC#N,< 31.6,< 31.6,< 31.6,< 31.6,< 31.6,33,26.1,16.8,10.2,3.16,0.05,26.5,22.9,15.5,9.38,5.32,0.11,23.6,19.6,13.4,"viability, T/C [16]: 7.92%; viability, T/C [17]: 2.44%; viability, T/C [18]: 0.07%; viability, T/C [19]: 16.7%; viability, T/C [20]: 16.4%; viability, T/C [21]: 9.48%; viability, T/C [22]: 6.16%; viability, T/C [23]: 0.43%; viability, T/C [24]: 0.03%; viability, T/C [25]: 0.16%; viability, T/C [26]: 0.08%; viability, T/C [27]: 0.07%; viability, T/C [28]: 0.05%; viability, T/C [29]: 0.04%; viability, T/C [30]: 0.05%"
COc1cc(Nc2ncc3c(n2)-c2ccc(Cl)cc2C(c2c(F)cccc2OC)=NC3)ccc1C(=O)O + C=CC(=O)N1CCN(c2nc(OCC3CCCN3C)nc3c2CCN(c2cccc4cccc(C)c24)C3)CC1CC#N,< 31.6,< 31.6,< 31.6,< 31.6,< 31.6,28.8,25.6,28.7,29.4,26.1,17.1,24.8,25.7,26.8,27.2,23.5,15.9,18.8,17.9,23.5,"viability, T/C [16]: 23.3%; viability, T/C [17]: 21.1%; viability, T/C [18]: 14.4%; viability, T/C [19]: 11.2%; viability, T/C [20]: 10.8%; viability, T/C [21]: 14.9%; viability, T/C [22]: 15.4%; viability, T/C [23]: 14.2%; viability, T/C [24]: 10.3%; viability, T/C [25]: 0.22%; viability, T/C [26]: 0.2%; viability, T/C [27]: 0.13%; viability, T/C [28]: 1.99%; viability, T/C [29]: 0.44%; viability, T/C [30]: 0.41%"
COc1cc2nccc(Oc3ccc(NC(=O)C4(C(=O)Nc5ccc(F)cc5)CC4)cc3)c2cc1OC + C=CC(=O)N1CCN(c2nc(OCC3CCCN3C)nc3c2CCN(c2cccc4cccc(C)c24)C3)CC1CC#N,2060,1710,1310,< 31.6,< 31.6,100,90.4,94.2,77.1,33.9,15.6,89.8,83.9,84.4,62.5,35.1,20.6,82,83.2,82.4,"viability, T/C [16]: 55.5%; viability, T/C [17]: 29.2%; viability, T/C [18]: 18.4%; viability, T/C [19]: 45.6%; viability, T/C [20]: 39%; viability, T/C [21]: 38.2%; viability, T/C [22]: 22.9%; viability, T/C [23]: 14.7%; viability, T/C [24]: 9.84%; viability, T/C [25]: 0.34%; viability, T/C [26]: 0.83%; viability, T/C [27]: 0.26%; viability, T/C [28]: 0.12%; viability, T/C [29]: 0.1%; viability, T/C [30]: 0.15%"
